Assay results taken from the supplement of paper PMC10307832.

Columns and labels:
Assay in all cases: relative viability (nuclei count vs DMSO), 5 days (fraction); higher = more cells survive
Crizotinib + Navitoclax = compound: C[C@@H](Oc1cc(-c2cnn(C3CCNCC3)c2)cnc1N)c1c(Cl)ccc(F)c1Cl [Crizotinib] + CC1(C)CCC(c2ccc(Cl)cc2)=C(CN2CCN(c3ccc(C(=O)NS(=O)(=O)c4ccc(N[C@H](CCN5CCOCC5)CSc5ccccc5)c(S(=O)(=O)C(F)(F)F)c4)cc3)CC2)C1 [Navitoclax] (partner 0.5 µM)
Method in brief: (§1)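 Relative viability equals treated-well nuclei counts divided by vehicle-well nuclei counts. Counts came from 4× images of lung cancer cell lines grown in 1536-well plates for 5 days after pin-tool dosing on the day after seeding. Dosing used one drug alone or a fixed anchor-drug dose plus five library-drug doses (not always all listed) in √10 steps, and values are medians of duplicate plates.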

Carfilzomib + AZD7762 = compound: CC(C)C[C@H](NC(=O)[C@H](CCc1ccccc1)NC(=O)CN1CCOCC1)C(=O)N[C@@H](Cc1ccccc1)C(=O)N[C@@H](CC(C)C)C(=O)[C@@]1(C)CO1 [Carfilzomib] + NC(=O)Nc1cc(-c2cccc(F)c2)sc1C(=O)N[C@H]1CCCNC1 [AZD7762] (partner 0.2 µM)
Method in brief: as §1

Crizotinib + Pictilisib = compound: C[C@@H](Oc1cc(-c2cnn(C3CCNCC3)c2)cnc1N)c1c(Cl)ccc(F)c1Cl [Crizotinib] + CS(=O)(=O)N1CCN(Cc2cc3nc(-c4cccc5[nH]ncc45)nc(N4CCOCC4)c3s2)CC1 [Pictilisib] (partner 1 µM)
Method in brief: as §1

Carfilzomib + Dasatinib = compound: CC(C)C[C@H](NC(=O)[C@H](CCc1ccccc1)NC(=O)CN1CCOCC1)C(=O)N[C@@H](Cc1ccccc1)C(=O)N[C@@H](CC(C)C)C(=O)[C@@]1(C)CO1 [Carfilzomib] + Cc1nc(Nc2ncc(C(=O)Nc3c(C)cccc3Cl)s2)cc(N2CCN(CCO)CC2)n1 [Dasatinib] (partner 0.075 µM)
Method in brief: as §1

Cell Line | relative viability (Crizotinib + Navitoclax; first compound 0.01 µM) | relative viability (Crizotinib + Navitoclax; first compound 0.03162 µM) | relative viability (Crizotinib + Navitoclax; first compound 0.1 µM) | relative viability (Crizotinib + Navitoclax; first compound 0.3162 µM) | relative viability (Crizotinib + Navitoclax; first compound 1 µM) | relative viability (Carfilzomib + AZD7762; first compound 0.001 µM) | relative viability (Carfilzomib + AZD7762; first compound 0.003162 µM) | relative viability (Carfilzomib + AZD7762; first compound 0.01 µM) | relative viability (Carfilzomib + AZD7762; first compound 0.03162 µM) | relative viability (Carfilzomib + AZD7762; first compound 0.1 µM) | relative viability (Crizotinib + Pictilisib; first compound 0.01 µM) | relative viability (Crizotinib + Pictilisib; first compound 0.03162 µM) | relative viability (Crizotinib + Pictilisib; first compound 0.1 µM) | relative viability (Crizotinib + Pictilisib; first compound 0.3162 µM) | relative viability (Crizotinib + Pictilisib; first compound 1 µM) | relative viability (Carfilzomib + Dasatinib; first compound 0.001 µM) | relative viability (Carfilzomib + Dasatinib; first compound 0.003162 µM) | relative viability (Carfilzomib + Dasatinib; first compound 0.01 µM) | relative viability (Carfilzomib + Dasatinib; first compound 0.03162 µM) | relative viability (Carfilzomib + Dasatinib; first compound 0.1 µM)
NCI-H1355 | 0.901 | 1.02 | 0.929 | 0.923 | 0.931 | 0.8 | 0.886 | 0.91 | 0.512 | 0.207 | 0.45 | 0.52 | 0.413 | 0.297 | 0.434 | 0.628 | 0.785 | 0.686 | 0.382 | 0.264
NCI-H1395 | 1.12 | 0.956 | 1.09 | 1.21 |  |  | 0.451 | 0.399 | 0.346 | 0.327 | 0.621 | 0.557 | 0.73 | 0.906 | 0.542 | 0.411 | 0.426 | 0.417 | 0.36 | 0.314
NCI-H1437 | 1.05 | 1.07 | 1.14 | 1.02 | 1.13 | 1.07 | 1.13 | 1.13 | 1.14 | 0.478 | 0.311 | 0.461 | 0.389 | 0.375 | 0.439 | 0.28 | 0.483 | 0.419 | 0.257 | 0.133
NCI-H1651 | 0.98 | 1.12 | 0.997 | 1.15 | 1.28 | 0.372 | 0.471 | 0.457 | 0.208 | 0.0827 | 0.437 | 0.65 | 0.514 | 0.559 | 0.572 | 0.361 | 0.295 | 0.266 | 0.104 | 0.0779
NCI-H1666 | 0.93 | 0.81 | 0.857 | 0.876 | 1.06 | 0.837 | 0.935 | 1.1 | 0.704 | 0.475 | 0.483 | 0.484 | 0.325 | 0.553 | 0.3 | 0.812 | 0.878 | 0.817 | 0.568 | 0.352
NCI-H1734 | 0.888 | 0.81 | 0.844 |  |  | 0.549 | 0.633 | 0.521 | 0.204 | 0.114 | 0.419 | 0.406 | 0.381 |  | 0.39 | 0.462 | 0.503 | 0.487 | 0.2 | 0.148
NCI-H1755 | 0.937 | 1.02 | 0.999 | 0.961 | 0.983 | 0.476 | 0.502 | 0.496 | 0.435 | 0.409 | 0.413 | 0.485 | 0.444 | 0.309 | 0.437 | 0.428 | 0.45 | 0.479 | 0.365 | 0.263
NCI-H1792 | 0.629 | 0.679 | 0.745 | 0.398 | 0.577 |  | 0.96 | 0.742 | 0.38 | 0.0881 | 0.266 | 0.286 | 0.284 | 0.274 | 0.285 | 0.753 | 0.9 | 0.918 | 0.657 | 0.649
NCI-H1915 | 0.694 | 0.782 | 0.818 |  | 0.801 | 0.61 | 0.711 | 0.57 | 0.414 | 0.125 | 0.874 | 0.88 | 1.01 |  | 0.952 | 0.271 | 0.344 | 0.299 | 0.174 | 0.102
NCI-H1944 | 1.01 | 0.995 | 1 | 1.03 | 1.05 | 0.538 | 0.568 | 0.587 | 0.448 | 0.317 | 0.322 | 0.341 | 0.328 | 0.344 | 0.343 | 0.214 | 0.233 | 0.186 | 0.203 | 0.135
NCI-H1975 | 0.965 | 1.06 | 1.03 | 1.26 | 1.06 | 0.651 | 0.804 | 0.684 | 0.222 | 0.19 | 0.28 | 0.294 | 0.308 | 0.344 | 0.266 |  | 0.33 | 0.144 | 0.0922 | 0.107
NCI-H1993 | 0.769 | 0.897 | 0.669 | 0.831 | 0.805 | 0.625 | 0.841 | 0.69 | 0.589 | 0.503 | 0.682 | 0.823 | 0.761 | 0.667 | 0.748 | 0.604 | 0.597 | 0.581 | 0.467 | 0.453
NCI-H2085 | 1.02 | 1.09 | 1.03 | 1.07 | 1.2 | 0.726 | 0.942 | 0.988 | 0.321 | 0.293 | 0.357 | 0.484 | 0.409 | 0.437 | 0.451 | 0.239 | 0.256 | 0.255 | 0.249 | 0.192
NCI-H2087 | 0.828 | 0.996 | 1.09 | 0.888 | 1.19 | 1.21 | 1.31 | 0.946 | 0.515 | 0.0622 | 0.693 | 0.909 | 0.953 | 0.42 | 0.943 | 0.781 | 0.994 | 0.465 | 0.0405 | 0.0695
NCI-H2126 | 0.834 | 0.826 | 0.842 | 0.759 | 0.832 | 0.875 | 1 | 1.01 | 1.01 | 0.697 | 0.456 | 0.5 | 0.481 | 0.429 | 0.48 | 0.655 | 0.641 | 0.705 | 0.655 | 0.268
NCI-H2170 | 0.536 | 0.603 | 0.574 | 0.468 | 0.632 | 0.846 | 0.963 | 1.02 | 0.734 | 0.238 | 0.316 | 0.315 | 0.286 | 0.277 | 0.292 | 0.56 | 0.519 | 0.832 | 0.352 | 0.237
